Measured values taken from article PMC12133982, “Predominant T-cell epitopes of SARS-CoV-2 restricted by multiple prevalent HLA-B and HLA-C allotypes in Northeast Asia” (Frontiers in Immunology, 2025).
Peptide text beside a SMILES is read from it.

What was measured:
HLA-C0102 = HLA-C0102 (Homo sapiens, UniProt P10321, A176E/A330V/A35S/A97T/C350S/D114A/D33F/L171W/L180R/L218V/M285V/M309V/M331V/P208H/Q277E/Q291P/R121W/R243W/R30K/S123C/S140Y/S297R/T329A/T363A/V272M/V319A); assay: Competitive peptide binding assay, CIR-C0102; conditions: HMy2.CIR-C0102 cells, reference Cy5-[…], class from inhibition at 5 and 15 μM, flow cytometry MFI; read-out: Binding affinity with HLA-C0102
Method: (§1) Then, competitive peptide binding assays were performed.

HLA-C0701 = HLA-C0701 (Homo sapiens, UniProt P10321, K90N/S123Y); assay: Competitive peptide binding assay, CIR-C0701; conditions: HMy2.CIR-C0701 cells, reference Cy5-[…], class from inhibition at 5 and 15 μM, flow cytometry MFI; read-out: Binding affinity with HLA-C 0701
Method: as §1

HLA-C0303 = HLA-C0303 (Homo sapiens, UniProt P10321, A176E/A330V/A97T/C25G/C350S/D114A/D33Y/E197K/G115R/L119I/L127V/L171W/L218V/M285V/M309V/M331V/P208H/Q277E/Q291P/R243W/R45H/S123Y/S140Y/S297R/S48A/T118I/T187L/T329A/T363A/V319A); assay: Competitive peptide binding assay, CIR-C0303; conditions: HMy2.CIR-C0303 cells, reference Cy5-[…], class from inhibition at 5 and 15 μM, flow cytometry MFI; read-out: Binding affinity with HLA-C0303
Method: as §1

HLA-C0302 = HLA-C0302 (Homo sapiens, UniProt P10321, A176E/A330V/A97T/C25G/C350S/D114A/D33Y/E197K/L127V/L171W/L218V/M285V/M309V/M331V/P208H/Q277E/Q291P/R243W/R45H/S123Y/S297R/S48A/T118I/T187L/T329A/T363A/V319A); assay: Competitive peptide binding assay, CIR-C0302; conditions: HMy2.CIR-C0302 cells, reference Cy5-[…], class from inhibition at 5 and 15 μM, flow cytometry MFI; read-out: Binding affinity with HLA-C0302
Method: as §1

HLA-C0801 = HLA-C0801 (Homo sapiens, UniProt P10321, A176T/A330V/A97T/C350S/D114A/D138N/D33Y/E201K/E299G/L171W/L218V/M285V/M309V/M331V/P208H/Q277E/Q291P/R59Q/S123Y/S140F/S297R/S48A/T329A/T363A/V319A/V328M); assay: Competitive peptide binding assay, CIR-C0801; conditions: HMy2.CIR-C0801 cells, reference Cy5-[…], class from inhibition at 5 and 15 μM, flow cytometry MFI; read-out: Binding affinity with HLA-C0801
Method: as §1

HLA-C0304 = HLA-C0304 (Homo sapiens, UniProt P10321, A176E/A330V/A97T/C25G/C350S/D114A/D33Y/E197K/L119I/L127V/L171W/L218V/M285V/M309V/M331V/P208H/Q277E/Q291P/R243W/R45H/S123Y/S140Y/S297R/S48A/T118I/T187L/T329A/T363A/V319A); assay: Competitive peptide binding assay, CIR-C0304; conditions: HMy2.CIR-C0304 cells, reference Cy5-[…], class from inhibition at 5 and 15 μM, flow cytometry MFI; read-out: Binding affinity with HLA-C0304
Method: as §1

HLA-C0602 = HLA-C0602 (Homo sapiens, UniProt P10321, A176E/A330V/C350S/L171W/L180W/L218V/M285V/M309V/M331V/N104K/P208H/Q277E/Q291P/R121W/S101N/S123Y/S297R/T329A/T363A/V319A/V328M); assay: Competitive peptide binding assay, CIR-C0602
HLA-C0702 = HLA-C0702 (Homo sapiens, UniProt P10321); assay: Competitive peptide binding assay, CIR-C0702
HLA-C1502 = HLA-C1502 (Homo sapiens, UniProt P10321, A176E/A330V/A97T/C350S/D114A/D33Y/K90N/L119I/L171W/L218V/M285V/M309V/M331V/N104K/P208H/Q277E/Q291P/R45H/S101N/S123Y/S140L/S297R/S48A/T118I/T329A/T363A/V319A/V328M/Y137H); assay: Competitive peptide binding assay, CIR-C1502; conditions: HMy2.CIR-C1502 cells, reference Cy5-[…], class from inhibition at 5 and 15 μM, flow cytometry MFI; read-out: Binding affinity with HLA-C1502
Method: as §1

HLA-C1202 = HLA-C1202 (Homo sapiens, UniProt P10321, A176E/A330V/C350S/D114A/D33Y/L171W/L180W/L218V/M285V/M309V/M331V/P208H/Q277E/Q291P/S123Y/S297R/S48A/T329A/T363A/V319A/V328M); assay: Competitive peptide binding assay, CIR-C1202; conditions: HMy2.CIR-C1202 cells, reference Cy5-[…], class from inhibition at 5 and 15 μM, flow cytometry MFI; read-out: Binding affinity with HLA-C1202
Method: as §1

HLA-C1402 = HLA-C1402 (Homo sapiens, UniProt P10321, A176E/A330V/A35S/A97T/C350S/D114A/D33S/L171W/L180R/L218V/M285V/M309V/M331V/P208H/Q277E/Q291P/R121W/R243W/S123F/S297R/S48A/T329A/T363A/V319A); assay: Competitive peptide binding assay, CIR-C1402; conditions: HMy2.CIR-C1402 cells, reference Cy5-[…], class from inhibition at 5 and 15 μM, flow cytometry MFI; read-out: Binding affinity with HLA-C1402
Method: as §1

HLA-B5101 = HLA-B5101 (Homo sapiens, UniProt P01889, A329T/A93T/A95T/C349S/D138N/D201E/D98Y/E187L/E204Q/E69T/G107R/I218V/K202T/L105A/L119W/N104I/Q94N/R106L/R155S/R180L/S101N/S121T/S35A/S48A/V306I/V36M/Y195H/Y91F); assay: Competitive peptide binding assay, CIR-B5101; conditions: HMy2.CIR-B5101 cells, reference Cy5-[…], class from inhibition at 5 and 15 μM, flow cytometry MFI; read-out: Binding affinity with HLA-B5101
Method: as §1

HLA-B5201 = HLA-B5201 (Homo sapiens, UniProt P01889, A329T/A93T/A95T/C349S/D138N/D201E/D98Y/E187L/E204Q/E69T/G107R/I218V/K202T/L105A/L119W/N104I/N87E/Q94N/R106L/R155S/R180L/S101N/S121T/S35A/S48A/V306I/V36M/Y195H/Y91S); assay: Competitive peptide binding assay, CIR-B5201; conditions: HMy2.CIR-B5201 cells, reference Cy5-[…], class from inhibition at 5 and 15 μM, flow cytometry MFI; read-out: Binding affinity with HLA-B5201
Method: as §1

SMILES | IC50 (HLA-C0102) [µM] | IC50 (HLA-C0701) [µM] | IC50 (HLA-C0303) [µM] | IC50 (HLA-C0302) [µM] | IC50 (HLA-C0801) [µM] | IC50 (HLA-C0304) [µM] | IC50 (HLA-C0602) [µM] | IC50 (HLA-C0702) [µM] | IC50 (HLA-C1502) [µM] | IC50 (HLA-C1202) [µM] | IC50 (HLA-C1402) [µM] | IC50 (HLA-B5101) [µM] | IC50 (HLA-B5201) [µM]
CC[C@H](C)[C@H](NC(=O)[C@H](C)NC(=O)[C@H](C)NC(=O)[C@H](CC(N)=O)NC(=O)CNC(=O)[C@H](CC(=O)O)NC(=O)[C@H](CCC(N)=O)NC(=O)[C@H](C)NC(=O)[C@@H](N)Cc1ccccc1)C(=O)O [Epitope M22] (H-FAQDGNAAI-OH; N-terminus and C-terminus assumed) | > 15 | > 15 | > 15 | < 5 | < 5 | 5 to 15 | > 15 |  |  |  |  |  | 
CC[C@H](C)[C@H](N)C(=O)N[C@@H](C)C(=O)N[C@@H](CCSC)C(=O)N[C@@H](C)C(=O)N[C@@H](CS)C(=O)N[C@@H](CC(C)C)C(=O)N[C@H](C(=O)NCC(=O)N[C@@H](CC(C)C)C(=O)O)C(C)C [Epitope M44] (H-IAMACLVGL-OH; N-terminus and C-terminus assumed) | < 5 | > 15 | > 15 | < 5 | > 15 | > 15 | > 15 | > 15 |  |  |  |  | 
C[C@H](NC(=O)[C@H](CO)NC(=O)[C@H](CO)NC(=O)[C@@H](N)Cc1ccc(O)cc1)C(=O)N[C@@H](CC(N)=O)C(=O)N[C@@H](CC(N)=O)C(=O)N[C@@H](CS)C(=O)N[C@H](C(=O)N[C@@H](Cc1ccccc1)C(=O)O)[C@@H](C)O [Epitope M64] (H-YSSANNCTF-OH; N-terminus and C-terminus assumed) | > 15 |  | > 15 | 5 to 15 | > 15 |  |  | > 15 | < 5 |  |  |  | 
CC(C)[C@H](NC(=O)[C@@H](N)Cc1ccccc1)C(=O)N[C@@H](CO)C(=O)N[C@@H](CC(N)=O)C(=O)NCC(=O)N[C@H](C(=O)N[C@@H](Cc1c[nH]cn1)C(=O)N[C@@H](Cc1c[nH]c2ccccc12)C(=O)N[C@@H](Cc1ccccc1)C(=O)O)[C@@H](C)O [Epitope M68] (H-FVSNGTHWF-OH; N-terminus and C-terminus assumed) |  | > 15 |  |  | > 15 |  | > 15 | > 15 | 5 to 15 |  |  |  | 
CC(C)C[C@H](NC(=O)[C@H](Cc1ccccc1)NC(=O)[C@@H](NC(=O)[C@@H](N)C(C)C)C(C)C)C(=O)N[C@@H](Cc1c[nH]cn1)C(=O)N[C@H](C(=O)N[C@H](C(=O)N[C@@H](Cc1ccc(O)cc1)C(=O)N[C@H](C(=O)O)C(C)C)[C@@H](C)O)C(C)C [Epitope M131] (H-VVFLHVTYV-OH; N-terminus and C-terminus assumed) | 5 to 15 |  |  | > 15 |  | 5 to 15 |  | > 15 |  | > 15 |  |  | 
CC(C)C[C@H](NC(=O)[C@H](CCC(=O)O)NC(=O)[C@H](Cc1ccccc1)NC(=O)[C@H](CO)NC(=O)[C@H](CC(C)C)NC(=O)[C@@H](NC(=O)[C@@H](NC(=O)[C@@H](NC(=O)[C@H](CCCNC(=N)N)NC(=O)[C@@H](N)Cc1ccc(O)cc1)C(C)C)C(C)C)C(C)C)C(=O)O [Epitope M156] (H-YRVVVLSFEL-OH; N-terminus and C-terminus assumed) | 5 to 15 |  | > 15 |  |  | > 15 |  |  |  | > 15 | > 15 |  | 
CC(C)C[C@H](NC(=O)[C@H](CCC(N)=O)NC(=O)[C@H](CC(=O)O)NC(=O)[C@H](C)NC(=O)[C@@H](N)Cc1c[nH]cn1)C(=O)N[C@H](C(=O)N1CCC[C@H]1C(=O)N[C@H](C(=O)N[C@@H](Cc1c[nH]c2ccccc12)C(=O)O)[C@@H](C)O)[C@@H](C)O [Epitope Y313] (H-HADQLTPTW-OH; N-terminus and C-terminus assumed) |  |  |  |  |  |  |  |  |  |  |  | > 15 | 5 to 15
